Measurements as given in ChEMBL document CHEMBL1201862, “PubChem BioAssay data set” (2004).
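Five compound concentrations were applied to cells in 96-well plates for 48 hours; endpoints were derived by simple linear interpolation of the resulting dose-response curve. GI50 = concentration required for 50% inhibition of growth.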 Calls of active or inactive are those of the source. No stated cut-off is given here; in the data, active = GI50 up to about 1.1 µM and inactive = higher.

Columns and labels:
Test in all cases: growth of human tumour cells (NCI), 48 h
ACHN = test system: ACHN
CAKI-1 = test system: CAKI-1
HCT-15 = test system: HCT-15
HL-60 = test system: HL-60
HOP-62 = test system: HOP-62
HT-29 = test system: HT-29
MDA-MB-231 = test system: MDA-MB-231
NCI-H522 = test system: NCI-H522
NCI/ADR-RES = test system: NCI/ADR-RES
OVCAR-8 = test system: OVCAR-8
SF-268 = test system: SF-268
SF-295 = test system: SF-295
SK-MEL-2 = test system: SK-MEL-2
SK-MEL-5 = test system: SK-MEL-5
SW-620 = test system: SW-620
TK-10 = test system: TK-10
U-251 = test system: U-251
UACC-257 = test system: UACC-257
CCRF-CEM = test system: CCRF-CEM
Malme-3M = test system: Malme-3M

Measured: GI50

N=C(N)N/N=C/c1c(-c2ccc(Cl)cc2)nc2sc(Cl)cn12
inactive: ACHN 3.85 µM | CAKI-1 1.5 µM | HOP-62 1.85 µM | MDA-MB-231 1.82 µM | NCI-H522 2.04 µM | NCI/ADR-RES 1.79 µM | OVCAR-8 1.27 µM | SF-268 1.7 µM | SF-295 1.79 µM | SK-MEL-2 1.71 µM | SK-MEL-5 1.62 µM | TK-10 1.72 µM | UACC-257 1.8 µM
active: HL-60 0.201 µM | HT-29 0.646 µM | SW-620 1.09 µM | U-251 0.658 µM
1.36 µM: HCT-15

NCCN(CCN(C(=O)Nc1ccccc1)c1ccccc1)C(=O)Nc1ccccc1
inactive: ACHN 20.5 µM | CCRF-CEM 41.6 µM | HL-60 18.9 µM | HOP-62 16.7 µM | HT-29 28.5 µM | MDA-MB-231 39.1 µM | Malme-3M 17.1 µM | NCI-H522 19 µM | NCI/ADR-RES 30.8 µM | OVCAR-8 23 µM | SF-268 18.6 µM | SF-295 18.5 µM | SK-MEL-2 19.2 µM | SK-MEL-5 18.5 µM | SW-620 22.5 µM | TK-10 24.5 µM | U-251 28.9 µM | UACC-257 19 µM
24.5 µM: HCT-15

COCCc1c(C)c(C#N)c2n(C)c3ccccc3n2c1=O
active: HL-60 0.00575 µM
inactive: ACHN > 10 µM | CAKI-1 > 10 µM | HOP-62 > 10 µM | HT-29 > 10 µM | MDA-MB-231 > 10 µM | Malme-3M > 10 µM | NCI-H522 > 10 µM | NCI/ADR-RES > 10 µM | OVCAR-8 > 10 µM | SF-268 > 10 µM | SF-295 > 10 µM | SK-MEL-2 > 10 µM | SK-MEL-5 > 10 µM | SW-620 > 10 µM | TK-10 > 10 µM | U-251 > 10 µM | UACC-257 > 10 µM
> 10 µM: HCT-15

OCC(O)COCn1cc(Cn2ncc3c(SCc4ccccc4)ncnc32)nn1 (stereo not given)
> 100 µM: HCT-15
inactive: ACHN > 100 µM | CAKI-1 > 100 µM | CCRF-CEM > 100 µM | HL-60 > 100 µM | HOP-62 > 100 µM | HT-29 > 100 µM | MDA-MB-231 > 100 µM | NCI-H522 27.2 µM | NCI/ADR-RES > 100 µM | OVCAR-8 > 100 µM | SF-268 51.4 µM | SF-295 > 100 µM | SK-MEL-2 > 100 µM | SK-MEL-5 > 100 µM | SW-620 > 100 µM | TK-10 > 100 µM | U-251 > 100 µM | UACC-257 > 100 µM

COc1ccc(N)c(C(O)CCNC(C)=O)c1 (stereo not given)
inactive: ACHN > 100 µM | CAKI-1 > 100 µM | CCRF-CEM > 100 µM | HL-60 > 100 µM | HT-29 > 100 µM | MDA-MB-231 > 100 µM | NCI-H522 > 100 µM | NCI/ADR-RES > 100 µM | OVCAR-8 > 100 µM | SF-268 > 100 µM | SF-295 > 100 µM | SK-MEL-2 > 100 µM | SK-MEL-5 > 100 µM | SW-620 > 100 µM | TK-10 > 100 µM | U-251 > 100 µM | UACC-257 > 100 µM
> 100 µM: HCT-15

[O-][S+](Nc1ccccc1)c1cccc(Cl)c1 (stereo not given)
inactive: ACHN 25.5 µM | CAKI-1 91 µM | CCRF-CEM 50.4 µM | HL-60 48.6 µM | HOP-62 > 100 µM | HT-29 > 100 µM | MDA-MB-231 66.1 µM | Malme-3M > 100 µM | NCI-H522 57.3 µM | NCI/ADR-RES 34.6 µM | OVCAR-8 77.1 µM | SF-268 44.1 µM | SF-295 65.3 µM | SK-MEL-5 42.8 µM | SW-620 > 100 µM | TK-10 > 100 µM | U-251 53.2 µM | UACC-257 > 100 µM
29.6 µM: HCT-15

COc1cc(C2CC(C)(N3CCOCC3)Oc3cc4c(cc32)OCO4)cc(OC)c1OC (stereo not given)
active: ACHN 0.243 µM | CAKI-1 0.177 µM | CCRF-CEM 0.0352 µM | HL-60 0.0228 µM | HOP-62 0.27 µM | HT-29 0.131 µM | MDA-MB-231 0.0748 µM | Malme-3M 0.0726 µM | NCI-H522 0.226 µM | NCI/ADR-RES 0.2 µM | OVCAR-8 0.531 µM | SF-295 0.104 µM | SK-MEL-5 0.103 µM | SW-620 0.136 µM | U-251 0.0577 µM
0.136 µM: HCT-15
inactive: SF-268 4.83 µM | UACC-257 > 50.1 µM

O=C(O)c1cnc2[nH]ccn2c1=O
> 100 µM: HCT-15
inactive: ACHN > 100 µM | CCRF-CEM > 100 µM | HL-60 > 100 µM | HOP-62 > 100 µM | HT-29 > 100 µM | MDA-MB-231 > 100 µM | Malme-3M > 100 µM | NCI/ADR-RES > 100 µM | OVCAR-8 > 100 µM | SF-268 > 100 µM | SF-295 > 100 µM | SK-MEL-5 > 100 µM | SW-620 > 100 µM | TK-10 > 100 µM | U-251 > 100 µM | UACC-257 > 100 µM

COc1cc(C(C)(C)C)c(OC(=O)/C=C/C(=O)O/C=C/[N+](=O)[O-])c(C(C)(C)C)c1
inactive: ACHN 30.5 µM | CAKI-1 23.5 µM | CCRF-CEM 10.2 µM | HOP-62 > 100 µM | HT-29 21.1 µM | MDA-MB-231 33.9 µM | NCI-H522 29.9 µM | NCI/ADR-RES 23.4 µM | OVCAR-8 36.4 µM | SF-268 30.2 µM | SF-295 > 100 µM | SK-MEL-5 35.3 µM | SW-620 28.4 µM | TK-10 85.3 µM | U-251 47.1 µM | UACC-257 47.6 µM
17.8 µM: HCT-15
active: HL-60 0.324 µM

c1ccc(NC2(c3nnnn3C3CCCCC3)CCNCC2)cc1
inactive: ACHN 20.1 µM | CCRF-CEM 20.4 µM | HL-60 14.1 µM | HOP-62 15.9 µM | HT-29 16.7 µM | MDA-MB-231 39.6 µM | Malme-3M 17.1 µM | NCI/ADR-RES 66.5 µM | OVCAR-8 28.6 µM | SF-268 39.6 µM | SF-295 17.9 µM | SK-MEL-5 19.5 µM | SW-620 22.2 µM | TK-10 16.8 µM | U-251 16.6 µM | UACC-257 15.7 µM
21.2 µM: HCT-15

O=C1NC(c2ccc3ccccc3c2)Nc2ccccc21 (stereo not given)
inactive: ACHN 48.1 µM | CAKI-1 59.7 µM | CCRF-CEM 30.6 µM | HL-60 15.2 µM | HOP-62 41 µM | HT-29 24.8 µM | MDA-MB-231 > 100 µM | NCI/ADR-RES 62.4 µM | OVCAR-8 33.4 µM | SF-268 > 100 µM | SF-295 35.3 µM | SK-MEL-2 35.9 µM | SK-MEL-5 20 µM | SW-620 43.8 µM | TK-10 > 100 µM | U-251 > 100 µM | UACC-257 57.9 µM
14.8 µM: HCT-15
